Source: ChEMBL document CHEMBL5523719, “Structure-activity relationship study of new carbazole sulfonamide derivatives as anticancer agents with dual-target mechanism” (Eur J Med Chem, 2024)
Each block holds one compound with its values, some of them ahead of it. The source made the active and inactive calls. The calls are words filed in the database; no cut-off is given here.

Legend:
[1] = test system: MDA-MB-231; assay: Antiproliferation activity against human MDA-MB-231 cells measured after 72 hrs incubation by MTT assay; format: functional, cell-based; details: MDA-MB-231, 72 h
[2] = test system: MIA PaCa-2; assay: Antiproliferation activity against human MIA PaCa-2 cells measured after 72 hrs incubation by MTT assay; format: functional, cell-based; details: MIA PaCa-2, 72 h
[3] = test system: NCI-H460; assay: Antiproliferation activity against human NCI-H460 cells measured after 72 hrs incubation by MTT assay; format: functional, cell-based; details: NCI-H460, 72 h
[4] = test system: KB; assay: Antiproliferation activity against human KB cells measured after 72 hrs incubation by MTT assay; format: functional, cell-based
[5] = test system: L02; assay: Antiproliferation activity against human L02 cells measured after 72 hrs incubation by MTT assay; format: functional, cell-based; details: L02, 72 h
[6] = test system: MCF7; assay: Antiproliferation activity against human MCF7 cells measured after 72 hrs incubation by MTT assay; format: functional, cell-based; details: MCF7, 72 h
[7] = test system: NCI/ADR-RES; assay: Antiproliferation activity against human MCF7/ADR cells measured after 72 hrs incubation by MTT assay; format: functional, cell-based
[8] = molecular target: T1, Tubulin (Homo sapiens) (UniProt P68371+Q9H4B7+P0DPH7+P68366+Q13509+Q71U36+P04350+Q3ZCM7+P07437+P68363+Q9BQE3+Q6PEY2+Q13885+Q9BVA1+Q9BUF5); assay: In vitro inhibition of microtubule (unknown origin) assembly at 10 uM; format: protein-complex assay
[9] = molecular target: T1, Tubulin (Homo sapiens); assay: Inhibition of microtubule assembly in human MCF7 cells assessed as disrupted microtubule network at 50 uM measured after 24 hrs incubation by anti-alpha-tubulin antibody (green) and Hoechst 33342 (blue) stained nuclei were obtained under microscopy; format: cell-based
[10] = molecular target: T1, Tubulin (Homo sapiens); assay: Inhibition of microtubule assembly in human HepG2 cells assessed as disrupted microtubule network at 50 uM measured after 24 hrs incubation by anti-alpha-tubulin antibody (green) and Hoechst 33342 (blue) stained nuclei were obtained under microscopy; format: cell-based
[11] = molecular target: Tubulin beta (Homo sapiens) (UniProt P68371+Q9H4B7+Q13509+P04350+Q3ZCM7+P07437+Q13885+Q9BVA1+Q9BUF5+A6NNZ2); assay: Binding affinity to beta-tubulin colchicine binding site in human MCF7 cells assessed as inhibition of EBI-beta-tubulin adduct band formation preincubated for 2 hrs followed by EBI addition measured after 2 hrs by EBI competition based Western blotting analysis; format: cell-based; details: dose 12.5-100 nM
[12] = test system: MCF7; assay: Induction of cell cycle arrest in human MCF7 cells assessed as accumulation of cells at G2/M phase at 4 nM measured after 24 hrs by flow cytometry (reference value: 22.84%); format: functional
[13] = test system: MCF7; assay: Induction of cell cycle arrest in human MCF7 cells assessed as accumulation of cells at G2/M phase at 25 nM measured after 24 hrs by flow cytometry (reference value: 22.84%); format: functional
[14] = test system: MCF7; assay: Induction of cell cycle arrest in human MCF7 cells assessed as accumulation of cells at G2/M phase at 100 nM measured after 24 hrs by flow cytometry (reference value: 22.84%); format: functional
[15] = test system: MCF7; assay: Induction of cell cycle arrest in human MCF7 cells assessed as accumulation of cells at G2/M phase at 500 nM measured after 24 hrs by flow cytometry (reference value: 22.84%); format: functional
[16] = test system: MCF7; assay: Induction of cell cycle arrest in human MCF7 cells assessed as accumulation of cells at G0/G1 phase at 4 nM measured after 24 hrs by flow cytometry (reference value: 61.73%); format: functional
[17] = test system: MCF7; assay: Induction of cell cycle arrest in human MCF7 cells assessed as accumulation of cells at G0/G1 phase at 25 nM measured after 24 hrs by flow cytometry (reference value: 61.73%); format: functional
[18] = test system: MCF7; assay: Induction of cell cycle arrest in human MCF7 cells assessed as accumulation of cells at G0/G1 phase at 100 nM measured after 24 hrs by flow cytometry (reference value: 61.73%); format: functional
[19] = test system: MCF7; assay: Induction of cell cycle arrest in human MCF7 cells assessed as accumulation of cells at G0/G1 phase at 500 nM measured after 24 hrs by flow cytometry (reference value: 61.73%); format: functional
[20] = test system: MCF7; assay: Induction of cell cycle arrest in human MCF7 cells assessed as increase in cyclin B1 protein expression at […] by Western blot analysis; format: functional, cell-based; details: dose lower 6.25 µM
[21] = test system: MCF7; assay: Induction of cell cycle arrest in human MCF7 cells assessed as increase in phosphorylation of histone H3 at […] by Western blot analysis; format: functional, cell-based; details: dose lower 6.25 µM
[22] = test system: MCF7; assay: Induction of apoptosis in human MCF7 cells assessed as early apoptotic cells at 6.25 nM measured after 48 hrs by AnnexinV/PI double staining assays (reference value: 5.32%); format: functional
[23] = test system: MCF7; assay: Induction of apoptosis in human MCF7 cells assessed as viable cells at 6.25 nM measured after 48 hrs by AnnexinV/PI double staining assays (reference value: 91.20%); format: functional; details: read-out: Activity
[24] = test system: MCF7; assay: Induction of apoptosis in human MCF7 cells assessed as late apoptotic cells at 6.25 nM measured after 48 hrs by AnnexinV/PI double staining assays (reference value: 2.60%); format: functional
[25] = test system: MCF7; assay: Induction of apoptosis in human MCF7 cells assessed as necrotic cells at 6.25 nM measured after 48 hrs by AnnexinV/PI double staining assays (reference value: 0.89%); format: functional
[26] = test system: MCF7; assay: Induction of apoptosis in human MCF7 cells assessed as viable cells at 12.5 nM measured after 48 hrs by AnnexinV/PI double staining assays (reference value: 91.20%); format: functional; details: read-out: Activity
[27] = test system: MCF7; assay: Induction of apoptosis in human MCF7 cells assessed as early apoptotic cells at 12.5 nM measured after 48 hrs by AnnexinV/PI double staining assays (reference value: 5.32%); format: functional
[28] = test system: MCF7; assay: Induction of apoptosis in human MCF7 cells assessed as late apoptotic cells at 12.5 nM measured after 48 hrs by AnnexinV/PI double staining assays (reference value: 2.60%); format: functional
[29] = test system: MCF7; assay: Induction of apoptosis in human MCF7 cells assessed as necrotic cells at 12.5 nM measured after 48 hrs by AnnexinV/PI double staining assays (reference value: 0.89%); format: functional
[30] = test system: MCF7; assay: Induction of apoptosis in human MCF7 cells assessed as viable cells at 25 nM measured after 48 hrs by AnnexinV/PI double staining assays (reference value: 91.20%); format: functional; details: read-out: Activity
[31] = test system: MCF7; assay: Induction of apoptosis in human MCF7 cells assessed as early apoptotic cells at 25 nM measured after 48 hrs by AnnexinV/PI double staining assays (reference value: 5.32%); format: functional
[32] = test system: MCF7; assay: Induction of apoptosis in human MCF7 cells assessed as late apoptotic cells at 25 nM measured after 48 hrs by AnnexinV/PI double staining assays (reference value: 2.60%); format: functional
[33] = test system: MCF7; assay: Induction of apoptosis in human MCF7 cells assessed as necrotic cells at 25 nM measured after 48 hrs by AnnexinV/PI double staining assays (reference value: 0.89%); format: functional
[34] = test system: MCF7; assay: Induction of apoptosis in human MCF7 cells assessed as viable cells at 50 nM measured after 48 hrs by AnnexinV/PI double staining assays (reference value: 91.20%); format: functional; details: read-out: Activity
[35] = test system: MCF7; assay: Induction of apoptosis in human MCF7 cells assessed as early apoptotic cells at 50 nM measured after 48 hrs by AnnexinV/PI double staining assays (reference value: 5.32%); format: functional
[36] = test system: MCF7; assay: Induction of apoptosis in human MCF7 cells assessed as late apoptotic cells at 50 nM measured after 48 hrs by AnnexinV/PI double staining assays (reference value: 2.60%); format: functional
[37] = test system: MCF7; assay: Induction of apoptosis in human MCF7 cells assessed as necrotic cells at 50 nM measured after 48 hrs by AnnexinV/PI double staining assays (reference value: 0.89%); format: functional
[38] = test system: MCF7; assay: Induction of apoptosis in human MCF7 cells assessed as multinuclear cells at 5 nM measured after 24 hrs by fluorescent microscopy; format: functional
[39] = test system: MCF7; assay: Induction of apoptosis in human MCF7 cells assessed as karyorrhexis at 5 nM measured after 24 hrs by fluorescent microscopy; format: functional
[40] = test system: HMEC-1; assay: Anti-proliferative activity against human HMEC-1 cells measured after 48 hrs; format: functional, cell-based; details: HMEC-1, 48 h
[41] = test system: HMEC-1; assay: Anti-migration activity in human HMEC-1 cells assessed as inhibition of cell migration at 5 nM measured after 48 hrs by Scratching assay; format: functional, cell-based
[42] = test system: HMEC-1; assay: Angiogenic activity against human HMEC-1 cells assessed as decrease in vascular area measured after 48 hrs by Endothelial tube formation assay; format: functional, cell-based; details: dose 1-100 nM
[43] = test system: MCF7; assay: In vivo antitumor activity against human MCF7 cells xenografted in BALB/c mouse assessed as inhibition of tumor growth treated iv every other day for 26 days; format: functional, organism-based; details: time 26.0 day
[44] = test system: MCF7; assay: In vivo antitumor activity against human MCF7 cells xenografted in BALB/c mouse assessed as decrease in tumor volume treated at 2.5 mg/kg, iv every other day for 26 days relative to control; format: functional; details: MCF7, 624 h, time 26 day
[45] = test system: MCF7; assay: In vivo antitumor activity against human MCF7 cells xenografted in BALB/c mouse assessed as decrease in tumor volume treated at 5 mg/kg, iv every other day for 26 days relative to control; format: functional; details: MCF7, 624 h, time 26 day
[46] = Toxicity in BALB/c mouse xenografted with human MCF7 cells assessed as lesions in heart at 5 mg/kg, iv every other day for 26 days by H and E staining based assay; format: organism-based; details: in vivo, 624 h, time 26 day
[47] = Toxicity in BALB/c mouse xenografted with human MCF7 cells assessed as lesions in liver at 5 mg/kg, iv every other day for 26 days by H and E staining based assay; format: organism-based; details: in vivo, 624 h, time 26 day
[48] = Toxicity in BALB/c mouse xenografted with human MCF7 cells assessed as lesions in spleen at 5 mg/kg, iv every other day for 26 days by H and E staining based assay; format: organism-based; details: in vivo, 624 h, time 26 day
[49] = Toxicity in BALB/c mouse xenografted with human MCF7 cells assessed as lesions in lung at 5 mg/kg, iv every other day for 26 days by H and E staining based assay; format: organism-based; details: in vivo, 624 h, time 26 day
[50] = Toxicity in BALB/c mouse xenografted with human MCF7 cells assessed as lesions in kidney at 5 mg/kg, iv every other day for 26 days by H and E staining based assay; format: organism-based; details: in vivo, 624 h, time 26 day
[51] = test system: MCF7; assay: In vivo antitumor activity against human MCF7 cells xenografted in BALB/c mouse assessed as inhibition of Ki-67 expression treated at 5 mg/kg, iv every other day for 26 days; format: functional, organism-based; details: time 26.0 day
[52] = test system: MCF7; assay: In vivo antitumor activity against human MCF7 cells xenografted in BALB/c mouse assessed as increase in cleaved caspase-3 treated at 5 mg/kg, iv every other day for 26 days; format: functional, organism-based; details: time 26.0 day

IC50 [1]: 0.00519 µM | IC50 [2]: 0.00081 µM | IC50 [3]: 0.0124 µM | IC50 [4]: 0.00937 µM | IC50 [6]: 0.0243 µM | inhibition [8]: Active | inhibition [9]: Active | inhibition [10]: Active | Activity [11]: Active
SMILES: COc1cc(NS(=O)(=O)c2ccc3c(c2)c2ccc(O)cc2n3C)c(OC)cc1Cl
IC50 [5]: 0.0537 µM | IC50 [7]: 0.00756 µM | Activity [12]: 17.8% | Activity [13]: 17.8% | Activity [14]: 17.8% | Activity [15]: 50.6% | Activity [16]: 37.05% | Activity [17]: 6.65% | Activity [18]: 3.93% | Activity [19]: 3.82% | Activity [20]: Dose-Dependent Effect | Activity [21]: Dose-Dependent Effect | Activity [22]: 34.89% | viability at 0.00625 µM [23]: 56.2% | Activity [24]: 8.89% | Activity [25]: 0.05% | viability at 0.0125 µM [26]: 49.2% | Activity [27]: 43.24% | Activity [28]: 7.54% | Activity [29]: 0.06% | viability at 0.025 µM [30]: 36.8% | Activity [31]: 49.44% | Activity [32]: 13.75% | Activity [33]: 0.06% | viability at 0.05 µM [34]: 46.3% | Activity [35]: 42.87% | Activity [36]: 10.8% | Activity [37]: 0.07% | Activity [38]: 46.27% | Activity [39]: 42.87% | IC50 [40]: 0.00642 µM | inhibition [41]: Active | Activity [42]: Dose-Dependent Effect

IC50 [1]: 0.102 µM | IC50 [2]: 0.0721 µM | IC50 [3]: 0.0416 µM | IC50 [4]: 0.023 µM
SMILES: COc1cc(NS(=O)(=O)c2ccc3c(c2)c2ccc(NC(=O)[C@@H](N)C(C)C)cc2n3C)c(OC)cc1Cl.Cl
IC50 [5]: 0.0432 µM | TGI [43]: Dose-Dependent Effect | inhibition in vivo at 2.5 mg/kg [44]: 38% | inhibition in vivo at 5 mg/kg [45]: 66% | Activity [46]: Non-Toxic | Activity [47]: Non-Toxic | Activity [48]: Non-Toxic | Activity [49]: Non-Toxic | Activity [50]: Non-Toxic | Activity [51]: Active | Activity [52]: Active
